Results reported in patent publication US5395624A, “Depigmenting cosmetic and/or dermatological composition containing a di- or tri-caffeoylquinic acid, or a mixture thereof” (L'Oreal, priority 1992, dated 1995).

How the values were obtained:
[1] = target: fungal tyrosinase; test: in vitro test of inhibition of tyrosinase activity; assay type: biochemical; conditions: L-tyrosine with L-dopa co-substrate, pH 6.5, 25° C., dopachrome at 475 nm, read-out: IC 50 (content leading to 50% inhibition of the tyrosinase)
Source text: The di- and tri-caffeoylquinic acids corresponding to general formula (I) have been studied comparatively with caffeic acid in equivalent molar quantities in the in vitro inhibition test of tyrosinase activity.
In this test, visible spectrometry at 475 mn is used to monitor the quantity of dopachrome formed during the chain of reactions by which tyrosine is transformed into melanins. These reactions are catalyzed in vitro using fungal tyrosinase in the presence of a reducing co-substrate (e.g., a small quantity of L-dopa) in order to initiate the hydroxylation reaction of L-tyrosine into L-dopa, which is then catalytically oxidized into dopaquinone, and then into dopachrome which is, an intermediate product, prior to the non-enzymatic oxidation reactions leading to melanin formation.
Accordingly, the concentration of dopachrome formed over time is measured in the presence and absence of the inhibitor.
The inhibition effect is expressed by the lowering of the maximum quantity of dopachrome formed (value of the optical density at 475 nm read on the flat part of the curve) in relation to the quantity obtained in the absence of the inhibitor.
For each compound, the content in micromoles per liter leading to 50% inhibition of the tyrosinase (IC 50) is measured.
A--Phosphate buffer 0.1M pH=6.5 (composition for 200 ml of buffer: 68.5 ml of NaH2 PO4 0.2M+31.5 ml of Na2 HPO4 0.2M+100 ml of water)
B--Mother solution of L-tyrosine at 2×10^-3 M in A
C--Mother solution of L-dopa at 10^-4 M in A
D--Mother solution of fungal tyrosinase at 2,400 units/ml in A
E--Mother solution of the inhibitor at 10^-2 M in ethanol (solutions C and D must be prepared the same day).
homogenize and establish equilibrium at 25° C.
add 0.05 ml of D to the test trough
mix rapidly and observe the kinetics by measuring absorption at 475 nm as a function of time.

[2] = background statement; cited from earlier work
[3] = system: melanocytes; conditions: background statement; cited from earlier work

| Compound | IC50 [1] | irritation [2] | cytotoxicity for melanocytes [3] |
| --- | --- | --- | --- |
| O=C(C=Cc1ccc(O)c(O)c1)OC1CC(OC(=O)C=Cc2ccc(O)c(O)c2)(C(=O)O)CC(O)C1O (centres unmarked) [1,3-di-caffeoylquinic acid] | 47 µM |  |  |
| O=C(C=Cc1ccc(O)c(O)c1)OC1CC(O)(C(=O)O)CC(OC(=O)C=Cc2ccc(O)c(O)c2)C1OC(=O)C=Cc1ccc(O)c(O)c1 (centres unmarked) [3,4,5-tri-caffeoylquinic acid] | 29 µM |  |  |
| O=C(C=Cc1ccc(O)c(O)c1)OC1CC(O)(C(=O)O)CC(O)C1OC(=O)C=Cc1ccc(O)c(O)c1 (centres unmarked) [3,4-di-caffeoylquinic acid] | 85 µM |  |  |
| O=C(C=Cc1ccc(O)c(O)c1)OC1CC(O)(C(=O)O)CC(OC(=O)C=Cc2ccc(O)c(O)c2)C1O (centres unmarked) [3,5-di-caffeoylquinic acid] | 52 µM |  |  |
| O=C(C=Cc1ccc(O)c(O)c1)OC1CC(O)(C(=O)O)CC(O)C1OC(=O)C=Cc1ccc(O)c(O)c1 (centres unmarked) [4,5-di-caffeoylquinic acid] | 45 µM |  |  |
| O=C(O)/C=C/c1ccc(O)c(O)c1 [Caffeic acid, reference compound] | 530 µM |  |  |
| Oc1ccc(O)cc1 [hydroquinone] |  | especially irritating | cytotoxic for melanocytes |
